Measurements from ChEMBL document CHEMBL6182873, “Fungal dimeric xanthones as anticancer agents by novelly stimulating sodium-calcium exchanger 1” (Eur J Med Chem, 2025).
One block for each compound: values may come before it. Activity calls are given as the source filed them. The rule behind the calls is not given here.

What was measured:
AGS [1] = assay: Potency index, ratio of cisplatin IC50 to test compound IC50 for anti-proliferative activity against human AGS cells assessed as inhibition of cell viability incubated for 48 hrs by CCK8 assay; format: functional
Gastric cancer cell = assay: Anti-proliferative activity against human gastric cancer cells assessed as reduction in cell proliferation at 10 to 40 uM; format: functional, cell-based; conditions: dose 10-40 µM
GES1 = assay: Anti-proliferative activity against human GES1 cells; format: toxicity, cell-based
AGS [2] = assay: Anti-proliferative activity against human AGS cells assessed as inhibition of cell viability incubated for 48 hrs by CCK8 assay; format: functional, cell-based
[3] = biological target: Sodium/calcium exchanger 1 (Homo sapiens) (UniProt P32418); assay: Activation of NCX1 in human AGS cells harboring shNCX1 assessed as increase in intracellular Fluo4-Ca2+ level at 5 uM in presence of extracellular Fluo4-Ca2+ by cell imaging analysis; format: cell-based
[4] = biological target: Sodium/calcium exchanger 1 (Homo sapiens) (UniProt P32418); assay: Activation of NCX1 in human DLD-1 cells assessed as increase in intracellular Fluo4-Ca2+ level at 5 uM in presence of extracellular Fluo4-Ca2+ by cell imaging analysis; format: cell-based
[5] = biological target: Sodium/calcium exchanger 1 (Homo sapiens) (UniProt P32418); assay: Activation of NCX1 in human AGS cells assessed as induction of membrane currents at 5 uM in presence of extracellular Fluo4-Ca2+/SN6 by cell imaging analysis; format: cell-based
[6] = biological target: Sodium/calcium exchanger 1 (Homo sapiens) (UniProt P32418); assay: Activation of NCX1 in human AGS cells assessed as induction of membrane currents at 5 uM in presence of extracellular Fluo4-Ca2+ by cell imaging analysis; format: cell-based; conditions: filed as activator
[7] = biological target: Sodium/calcium exchanger 1 (Homo sapiens) (UniProt P32418); assay: Activation of NCX1 in human AGS cells assessed as increase in intracellular Fluo4-Ca2+ level at 5 uM in presence of extracellular Fluo4-Ca2+/SN6 by cell imaging analysis; format: cell-based
AGS [8] = assay: Downregulation of PI3K level in human AGS cells by Western blot analysis; format: functional, cell-based; conditions: dose <= 10.0 µM
AGS [9] = assay: Induction of apoptosis in human AGS cells assessed as late apoptotic cells at 10 uM by Annexin V-FITC/PI staining based flow cytometry (reference value: 1.43 %); format: functional
AGS [10] = assay: Induction of apoptosis in human AGS cells assessed as viable cells at 5 uM by Annexin V-FITC/PI staining based flow cytometry (reference value: 94.1 %); format: functional; conditions: read-out: Activity
AGS [11] = assay: Induction of apoptosis in human AGS cells assessed as necrotic cells at 20 uM by Annexin V-FITC/PI staining based flow cytometry (reference value: 0.20 %); format: functional
AGS [12] = assay: Induction of apoptosis in human AGS cells assessed as late apoptotic cells at 5 uM by Annexin V-FITC/PI staining based flow cytometry (reference value: 1.43 %); format: functional
B16 [13] = assay: Activation of NCX1 in mouse B16 cells harboring shNCX1 assessed as increase in intracellular Fluo4-Ca2+ level at 5 uM in presence of extracellular Fluo4-Ca2+ by cell imaging analysis; format: cell-based
B16 [14] = assay: Activation of NCX1 in mouse B16 cells assessed as increase in intracellular Fluo4-Ca2+ level at 5 uM in presence of extracellular Fluo4-Ca2+ by cell imaging analysis; format: cell-based; conditions: filed as activator
AGS [15] = assay: Downregulation of AKT level in human AGS cells at 5 uM in presence of SN 6 by Western blot analysis; format: functional, cell-based
AGS [16] = assay: Downregulation of AKT level in human AGS cells by Western blot analysis; format: functional, cell-based; conditions: dose <= 10.0 µM
AGS [17] = assay: Induction of apoptosis in human AGS cells assessed as necrotic cells at 10 uM by Annexin V-FITC/PI staining based flow cytometry (reference value: 0.20 %); format: functional
AGS [18] = assay: Induction of cell cycle arrest in human AGS cells assessed as cell accumulation at S phase at 5 uM by PI staining based flow cytometry (reference value: 32.4 %); format: functional
[19] = biological target: Sodium/calcium exchanger 1 (Homo sapiens) (UniProt P32418); assay: Activation of NCX1 in human AGS cells assessed as increase in intracellular Fluo4-Ca2+ level at 5 uM in presence of extracellular Fluo4-Ca2+ by cell imaging analysis; format: cell-based; conditions: filed as activator
AGS [20] = assay: Inhibition of cell migration in human AGS cells at 5 uM incubated up to 24 hrs by scratch wound healing assay; format: functional, cell-based
AGS [21] = assay: Downregulation of beta-catenin level in human AGS cells by Western blot analysis; format: functional, cell-based; conditions: dose <= 10.0 µM
AGS [22] = assay: Induction of apoptosis in human AGS cells assessed as late apoptotic cells at 20 uM by Annexin V-FITC/PI staining based flow cytometry (reference value: 1.43 %); format: functional
AGS [23] = assay: Downregulation of PI3K level in human AGS cells at 5 uM in presence of SN 6 by Western blot analysis; format: functional, cell-based
B16 [24] = assay: Activation of NCX1 in mouse B16 cells assessed as increase in intracellular Fluo4-Ca2+ level at 5 uM in presence of extracellular Fluo4-Ca2+/SN 6 by cell imaging analysis; format: cell-based
AGS [25] = assay: Induction of apoptosis in human AGS cells assessed as early apoptotic cells at 10 uM by Annexin V-FITC/PI staining based flow cytometry (reference value: 4.25 %); format: functional
AGS [26] = assay: Effect on ERK1/2 level in human AGS cells up to 10 uM by Western blot analysis; format: functional, cell-based
AGS [27] = assay: Induction of cell cycle arrest in human AGS cells assessed as cell accumulation at G2 phase at 5 uM by PI staining based flow cytometry (reference value: 25.7 %); format: functional
B16 [28] = assay: Antiproliferative activity against mouse B16 cells assessed as inhibition of cell viability; format: functional, cell-based
AGS [29] = assay: Downregulation of beta-catenin level in human AGS cells at 5 uM in presence of SN 6 by Western blot analysis; format: functional, cell-based
AGS [30] = assay: Induction of apoptosis in human AGS cells assessed as viable cells at 20 uM by Annexin V-FITC/PI staining based flow cytometry (reference value: 94.1 %); format: functional; conditions: read-out: Activity
AGS [31] = assay: Induction of apoptosis in human AGS cells assessed as viable cells at 10 uM by Annexin V-FITC/PI staining based flow cytometry (reference value: 94.1 %); format: functional; conditions: read-out: Activity
AGS [32] = assay: Induction of apoptosis in human AGS cells assessed as early apoptotic cells at 5 uM by Annexin V-FITC/PI staining based flow cytometry (reference value: 4.25 %); format: functional
AGS [33] = assay: Induction of apoptosis in human AGS cells assessed as early apoptotic cells at 20 uM by Annexin V-FITC/PI staining based flow cytometry (reference value: 4.25 %); format: functional
AGS [34] = assay: Induction of apoptosis in human AGS cells assessed as necrotic cells at 5 uM by Annexin V-FITC/PI staining based flow cytometry (reference value: 0.20 %); format: functional
B16 [35] = assay: Antitumor activity against mouse B16 cells implanted in nude mouse at 2.5 to 5 mg/kg, ip; format: functional, organism-based; conditions: dose 2.5-5 mg/kg
AGS [36] = assay: Inhibition of cell migration in human AGS cells at 5 uM by transwell assay; format: functional, cell-based
AGS [37] = assay: Induction of cell cycle arrest in human AGS cells assessed as cell accumulation at G1 phase at 5 uM by PI staining based flow cytometry (reference value: 41.9 %); format: functional

Sodium/calcium exchanger 1 (Homo sapiens), sequence (P32418 36-973 limits assumed): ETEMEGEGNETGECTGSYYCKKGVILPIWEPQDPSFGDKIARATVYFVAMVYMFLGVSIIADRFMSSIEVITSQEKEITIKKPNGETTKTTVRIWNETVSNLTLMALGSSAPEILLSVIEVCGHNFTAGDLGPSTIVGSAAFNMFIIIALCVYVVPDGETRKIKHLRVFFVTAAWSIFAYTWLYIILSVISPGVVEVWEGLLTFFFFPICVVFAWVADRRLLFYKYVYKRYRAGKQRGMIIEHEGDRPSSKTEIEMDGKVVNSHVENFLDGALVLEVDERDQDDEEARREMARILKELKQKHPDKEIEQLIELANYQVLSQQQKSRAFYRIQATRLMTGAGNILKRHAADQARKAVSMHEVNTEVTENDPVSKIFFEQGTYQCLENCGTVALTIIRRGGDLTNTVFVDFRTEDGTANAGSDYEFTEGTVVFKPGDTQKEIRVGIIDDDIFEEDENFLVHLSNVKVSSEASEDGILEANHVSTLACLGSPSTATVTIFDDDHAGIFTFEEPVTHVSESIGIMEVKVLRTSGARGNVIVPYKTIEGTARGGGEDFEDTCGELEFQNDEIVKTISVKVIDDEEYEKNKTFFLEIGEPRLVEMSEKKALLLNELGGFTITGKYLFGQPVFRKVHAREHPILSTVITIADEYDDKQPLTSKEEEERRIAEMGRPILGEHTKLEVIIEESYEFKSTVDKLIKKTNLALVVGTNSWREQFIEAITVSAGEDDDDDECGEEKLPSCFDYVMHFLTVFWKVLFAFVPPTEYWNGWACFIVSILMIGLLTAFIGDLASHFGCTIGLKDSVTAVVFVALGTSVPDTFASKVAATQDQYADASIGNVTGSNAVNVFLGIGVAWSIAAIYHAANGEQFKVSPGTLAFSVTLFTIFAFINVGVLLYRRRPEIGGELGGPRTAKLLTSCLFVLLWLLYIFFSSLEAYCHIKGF

SMILES: CC(=O)O[C@H]1[C@@H](C)CC(O)=C2C(=O)c3c(ccc(-c4ccc5c(c4O)C(=O)C4=C(O)C[C@H](C)[C@H](OC(C)=O)[C@]4(CO)O5)c3O)O[C@]21CO
Ratio IC50 (AGS [1]): 2 | Activity (Gastric cancer cell): Active | Activity (GES1): Non-toxic | IC50 (AGS [2]; Homo sapiens, AGS, 48 h): 3.45 µM

SMILES: CC(=O)O[C@H]1[C@@H](C)CC(O)=C2C(=O)c3c(ccc(-c4ccc(O)c5c4O[C@]4(CO)C(=C(O)C[C@H](C)[C@@H]4OC(C)=O)C5=O)c3O)O[C@]21CO
Ratio IC50 (AGS [1]): 2 | Activity (Gastric cancer cell): Active | Activity (GES1): Non-toxic | IC50 (AGS [2]; Homo sapiens, AGS, 48 h): 3.06 µM

IC50 (AGS [2]; ags): 3.89 µM
SMILES: CC(=O)OC[C@@]12Oc3c(-c4ccc5c(c4O)C(=O)C4=C(O)C[C@H](C)[C@H](OC(C)=O)[C@]4(CO)O5)ccc(O)c3C(=O)C1=C(O)C[C@H](C)[C@@H]2OC(C)=O (stereo in doubt; 3) [listing 1 of 2 here]

SMILES: CC(=O)OC[C@@]12Oc3c(-c4ccc5c(c4O)C(=O)C4=C(O)C[C@H](C)[C@H](OC(C)=O)[C@]4(CO)O5)ccc(O)c3C(=O)C1=C(O)C[C@H](C)[C@@H]2OC(C)=O (stereo in doubt; 2) [listing 1 of 2 here]
Activity (Gastric cancer cell): Active

Activity [3]: inactive | Activity [4]: inactive | Activity [5]: inactive | Activity [6]: Active | Activity [7]: inactive
SMILES: CC(=O)OC[C@@]12Oc3c(-c4ccc5c(c4O)C(=O)C4=C(O)C[C@H](C)[C@H](OC(C)=O)[C@]4(CO)O5)ccc(O)c3C(=O)C1=C(O)C[C@H](C)[C@@H]2OC(C)=O (stereo in doubt; 3) [listing 2 of 2 here]
Activity (Gastric cancer cell): Active

SMILES: CC(=O)OC[C@@]12Oc3ccc(-c4ccc5c(c4O)C(=O)C4=C(O)C[C@H](C)[C@H](OC(C)=O)[C@]4(COC(C)=O)O5)c(O)c3C(=O)C1=C(O)C[C@H](C)[C@@H]2OC(C)=O
Ratio IC50 (AGS [1]): 2 | Activity (Gastric cancer cell): Active | Activity (GES1): Non-toxic | IC50 (AGS [2]; Homo sapiens, AGS, 48 h): 6.23 µM

IC50 (AGS [2]; Homo sapiens, AGS, 48 h): 5.36 µM
SMILES: CC(=O)OC[C@@]12Oc3c(-c4ccc5c(c4O)C(=O)C4=C(O)C[C@H](C)[C@H](OC(C)=O)[C@]4(CO)O5)ccc(O)c3C(=O)C1=C(O)C[C@H](C)[C@@H]2OC(C)=O (stereo in doubt; 2) [listing 2 of 2 here]
Ratio IC50 (AGS [1]): 2 | Activity (GES1): Non-toxic

SMILES: CC(=O)OC[C@@]12Oc3ccc(-c4ccc5c(c4O)C(=O)C4=C(O)C[C@H](C)[C@H](OC(C)=O)[C@]4(CO)O5)c(O)c3C(=O)C1=C(O)C[C@H](C)[C@@H]2OC(C)=O
Ratio IC50 (AGS [1]): 2 | Activity (Gastric cancer cell): Active | Activity (GES1): Non-toxic | IC50 (AGS [2]; Homo sapiens, AGS, 48 h): 3.47 µM

IC50 (AGS [2]; Homo sapiens, AGS, 48 h): 2.65 µM
SMILES: CC(=O)O[C@H]1[C@@H](C)CC(O)=C2C(=O)c3c(O)ccc(-c4ccc5c(c4O)C(=O)C[C@](CO)([C@H]4OC(=O)C[C@@H]4C)O5)c3O[C@]21CO
Ratio IC50 (AGS [1]): 2 | Activity (GES1): Non-toxic

Activity [19]: Active | IC50 (AGS [2]; Homo sapiens, AGS, 48 h): 5.2 µM | Activity [3]: inactive | IC50 (B16 [28]): 5.36 µM | Activity [4]: inactive | Activity [5]: inactive | Activity [6]: Active | Activity [7]: inactive
SMILES: CC(=O)OC[C@@]12Oc3c(-c4ccc(O)c5c4O[C@]4(CO)C(=C(O)C[C@H](C)[C@@H]4OC(C)=O)C5=O)ccc(O)c3C(=O)C1=C(O)C[C@H](C)[C@@H]2OC(C)=O
Activity (AGS [8]): Dose-dependent-effect | Activity (AGS [9]): 2.01% | viability at 5 µM (AGS [10]): 91.8% | Activity (AGS [11]): 0.18% | Activity (AGS [12]): 2.54% | Activity (B16 [13]): inactive | Ratio IC50 (AGS [1]): 2 | Activity (B16 [14]): Active | Activity (AGS [15]): inactive | Activity (AGS [16]): Dose-dependent-effect | Activity (AGS [17]): 0.094% | Activity (AGS [18]): 26.3% | Activity (Gastric cancer cell): Active | inhibition (AGS [20]): Active | Activity (AGS [21]): Dose-dependent-effect | Activity (GES1): Non-toxic | Activity (AGS [22]): 5.94% | Activity (AGS [23]): inactive | Activity (B16 [24]): inactive | Activity (AGS [25]): 4.24% | Activity (AGS [26]): No effect | Activity (AGS [27]): 24.9% | Activity (AGS [29]): inactive | viability at 20 µM (AGS [30]): 77.3% | viability at 10 µM (AGS [31]): 93.7% | Activity (AGS [32]): 5.57% | Activity (AGS [33]): 16.6% | Activity (AGS [34]): 0.13% | Activity (B16 [35]): Active; Activity Was Much Greater Than Cisplatin | inhibition (AGS [36]): Active | Activity (AGS [37]): 48.8%

SMILES: CC(=O)O[C@H]1[C@@H](C)CC(O)=C2C(=O)c3c(O)ccc(-c4ccc(O)c5c4O[C@]4(CO)C(=C(O)C[C@H](C)[C@@H]4OC(C)=O)C5=O)c3O[C@]21CO
Ratio IC50 (AGS [1]): 2 | Activity (Gastric cancer cell): Active | Activity (GES1): Non-toxic | IC50 (AGS [2]; Homo sapiens, AGS, 48 h): 13.8 µM
